Results reported in patent US5851994A, “Compositions that inhibit wound contraction and methods of using same” (La Jolla Cancer Research Foundation, priority 1995, dated 1998).

Tests used:
[1] = system: CTT-18 cells; assay: Peptide collagen gel contraction assay; format: cell-based, human; conditions: FIG. 4, gel area over time
Description: CTT-18 cells, which are a normal human colon fibroblast cell line available from ATCC (#1459-CRL), were used in the gel contraction assays. Subconfluent CTT-18 cells were harvested by trypsinization, neutralized with soybean trypsin inhibitor, then washed several times with serum-free Dulbecco's modified Eagle's medium (DMEM). The cells were resuspended at 5×10^6 cells/ml in DMEM.
The collagen solution was prepared by combining the following reagents in the stated order: 1× DMEM, 1× insulin/transferrin/selenium (ITS; Collaborative Research; Bedford Mass.), 25 mM HEPES, 2.5 mg/ml rat tail collagen I (Collaborative Research). The solution was adjusted to pH 7.4 using 2M NaOH and deionized water was added to the appropriate final volume. Finally, 5×10^4 cells/ml (DMEM) were added to the solution and 0.6 ml of the combined solution was added to each well of a 24 well plate. The solution was allowed to gel for 1 hr at 37° C.
Peptides were diluted to 4.5 mM in 1× DMEM/1× ITS/1× penicillin/1× streptomycin and the solution was adjusted to pH 7.4. Each gel was overlayed with 0.6 ml peptide solution and the gel periphery was rimmed to release the gel from the edge of the well. The gels were incubated at 37° C. and each gel area was monitored daily by planimetry using a computerized planimetry program (Digitize, Macintosh).
In addition to determining the area of a gel, a replicate gel for each experimental condition was examined each day for cell viability. To determine cell viability, the overlay media was removed and replaced with 4 mg/ml collagenase type 2 (Worthington Biochemical; Freehold N.J.) in collagen digestion buffer (0.13M NaCl, 0.01M Ca acetate, 0.02M HEPES, pH 7.2). The sample was incubated at 37° C. until digestion was complete (about 1 hr). The solution was centrifuged at 3000 rpm in a microcentrifuge for 5 min and the pellet resuspended in trypsin/EDTA and incubated for 20 min at 37° C. The solution again was centrifuged, the pellet resuspended in 40 μl 0.4% trypan blue and the viable cells were counted in a hemocytometer. In general, the variations in cell viability were slight, and it was unnecessary to correct the gel contraction results due to significant differences in cell viability.

[2] = system: collagen gels; conditions: Grinnell et al. 1989; U.S. Pat. No. 4,957,902; cited from earlier work
[3] = system: NIH 3T3 mouse fibroblasts; assay: Decorin collagen gel contraction assay, NIH 3T3 cells; format: cell-based; conditions: for collagen gel contraction versus control level: 10 ng/ml PDGF, 20 ng/ml acidic FGF, without decorin
Description: NIH 3T3 mouse fibroblasts (ATCC #CRL 1658) and WI38 human fibroblasts (ATCC #CL75) were used in these assays and passaged in culture as prescribed.
Cells were collected by washing the cells with sterile PBS, then incubating the cells for 5 min at 37° C. with trypsin-EDTA (200 mg versene and 500 mg trypsin/liter Hank's balanced salt solution; Gibco/BRL; Gaithersburg MD). Following incubation, cells were removed by aspiration with a pipet and DMEM supplemented with 10% FBS (BioWhittaker; Walkersville Md.) was added to neutralize the trypsin. Cells were centrifuged for 8 min at 1200 rpm, decanted, washed 3× with serum-free DMEM and resuspended in serum-free DMEM to the following concentrations: NIH 3T3 cells, 3.0×10^6 cells/ml; WI38 cells, 1.0×10^6 cell/ml.
The following reagents were added on ice to generate a total of 24 gels: 3.6 ml 5× DMEM (Gibco/BRL), 1.0 ml 1M HEPES (Sigma), 0.74 ml 0.5M NaOH, 2.0 ml cell suspension in serum-free DMEM, 7.6 ml rat tail collagen I (3.81 mg/ml; Collaborative Research). The collagen mixture was quickly added to a mixture of 4.8 ml decorin and water to yield the appropriate decorin concentration and 0.7 ml was added to each well of a 24 well microtiter dish that previously had been coated with 2% bovine serum albumin in PBS. The gels were allowed to solidify for 1 hr at 37° C. in a humidified incubator, then were released from the edges of the well by tapping or by rimming with a pipet tip.
Gels were transferred aseptically using forceps from the microtiter plate into a Nunc six well plate. Three gels were transferred into each 33 mm well. Prior to transfer, each well received 1 ng/ml TGFβ (from porcine platelets; R&D Systems; Minneapolis Minn.). […] The plates were rocked in a humidified incubator at 37° C. and 7% CO2 for the length of the experiment. The area of the gels was measured daily using photographs from an image analyzer and planimetry.

[4] = system: collagen; assay: Effect on collagen fibril structure
[5] = system: collagen; assay: Binding to collagen

Molecule: N=C(N)NCCC[C@H](N)C(=O)O [mono-arginine, arginine]
- inhibition of gel contraction [1]: did not inhibit gel contraction
- inhibition of gel contraction ([1]; listed as Arg 1): do not inhibit collagen gel contraction

Molecule: GRGESP
- effect on contraction of collagen gels [2]: inhibited contraction of collagen gels

Molecule: PDGF
- collagen gel contraction versus control level ([3]; 1 ng/ml TGFβ, FIG. 6): increased the amount of collagen gel contraction above the control level

Molecule: TGFβ: growth factor from porcine platelets (R&D Systems) that stimulates contraction
- collagen gel contraction versus control level ([3]; 1 ng/ml TGFβ, FIG. 6): increased the amount of collagen gel contraction above the control level
- contraction of a collagen/NIH 3T3 gel ([3]; 1.0 ng/ml TGFβ, 24 hr, 0 μg/ml decorin): approximately 60%

Molecule: acidic FGF: acidic fibroblast-derived growth factor (R & D Systems)
- collagen gel contraction versus control level ([3]; 1 ng/ml TGFβ, FIG. 6): increased the amount of collagen gel contraction above the control level

Molecule: di-arginine
- inhibition of gel contraction [1]: did not inhibit gel contraction
- inhibition of gel contraction ([1]; listed as Arg 2): do not inhibit collagen gel contraction

Molecule: tri-arginine
- inhibition of gel contraction [1]: did not inhibit gel contraction
- inhibition of gel contraction ([1]; listed as Arg 3): do not inhibit collagen gel contraction

B1: decorin: proteoglycan produced by fibroblasts, core protein about 40 kDa; produced in decorin-expressing CHO cells (protein, UniProt P07585 31-359, looked up)
Decorin: DEASGIGPEVPDDRDFEPSLGPVCPFRCQCHLRVVQCSDLGLDKVPKDLPPDTTLLDLQNNKITEIKDGDFKNLKNLHALILVNNKISKVSPGAFTPLVKLERLYLSKNQLKELPEKMPKTLQELRAHENEITKVRKVTFNGLNQMIVIELGTNPLKSSGIENGAFQGMKKLSYIRIADTNITSIPQGLPPSLTELHLDGNKISRVDAASLKGLNNLAKLGLSFNSISAVDNGSLANTPHLRELHLDNNKLTRVPGGLAEHKYIQVVYLHNNNISVVGSSDFCPPGHNTKKASYSGVSLFSNPVQYWEIQPSTFRCVYVRSAIQLGNYK
- gel contraction in the presence of growth factors ([3]; 200 μg decorin per ml gel, 1 ng/ml TGFβ, 10 ng/ml PDGF or 20 ng/ml acidic FGF, FIG. 6): reduced or inhibited the level of gel contraction
- gel contraction at 200 μg per ml decorin ([3]; collagen/NIH 3T3 gel, 1 ng/ml TGFβ, 24 hr): no gel contraction was observed
- gel contraction with increasing concentrations of decorin in the gel ([3]; collagen/NIH 3T3 gel, 1 ng/ml TGFβ, 24 hr, FIG. 5): reduced or inhibited gel contraction

B2: denatured decorin: denatured decorin, compared with native/intact decorin (protein, UniProt P07585 31-359, looked up)
Decorin: DEASGIGPEVPDDRDFEPSLGPVCPFRCQCHLRVVQCSDLGLDKVPKDLPPDTTLLDLQNNKITEIKDGDFKNLKNLHALILVNNKISKVSPGAFTPLVKLERLYLSKNQLKELPEKMPKTLQELRAHENEITKVRKVTFNGLNQMIVIELGTNPLKSSGIENGAFQGMKKLSYIRIADTNITSIPQGLPPSLTELHLDGNKISRVDAASLKGLNNLAKLGLSFNSISAVDNGSLANTPHLRELHLDNNKLTRVPGGLAEHKYIQVVYLHNNNISVVGSSDFCPPGHNTKKASYSGVSLFSNPVQYWEIQPSTFRCVYVRSAIQLGNYK
modifications: denatured
- effect on fibril structure [4]: does not affect fibril structure
- inhibition of gel contraction compared with intact decorin ([3]; cells not given): retains some ability to inhibit gel contraction
- collagen binding [5]: binds collagen to the same extent as nondenatured decorin

B3: Decorin that had been reduced and alkylated: decorin incubated with dithiothreitol, then iodoacetamide (protein, UniProt P07585 31-359, looked up)
Decorin: DEASGIGPEVPDDRDFEPSLGPVCPFRCQCHLRVVQCSDLGLDKVPKDLPPDTTLLDLQNNKITEIKDGDFKNLKNLHALILVNNKISKVSPGAFTPLVKLERLYLSKNQLKELPEKMPKTLQELRAHENEITKVRKVTFNGLNQMIVIELGTNPLKSSGIENGAFQGMKKLSYIRIADTNITSIPQGLPPSLTELHLDGNKISRVDAASLKGLNNLAKLGLSFNSISAVDNGSLANTPHLRELHLDNNKLTRVPGGLAEHKYIQVVYLHNNNISVVGSSDFCPPGHNTKKASYSGVSLFSNPVQYWEIQPSTFRCVYVRSAIQLGNYK
modifications: reduced and alkylated
notes: decorin incubated with dithiothreitol, then iodoacetamide
- gel contraction ([3]; reduced and alkylated form, data not shown): inhibited gel contraction

B4: biglycan: proteoglycan with core protein sequence closely related to decorin (protein, UniProt P21810 38-368, looked up)
Biglycan: DEEASGADTSGVLDPDSVTPTYSAMCPFGCHCHLRVVQCSDLGLKSVPKEISPDTTLLDLQNNDISELRKDDFKGLQHLYALVLVNNKISKIHEKAFSPLRKLQKLYISKNHLVEIPPNLPSSLVELRIHDNRIRKVPKGVFSGLRNMNCIEMGGNPLENSGFEPGAFDGLKLNYLRISEAKLTGIPKDLPETLNELHLDHNKIQAIELEDLLRYSKLYRLGLGHNQIRMIENGSLSFLPTLRELHLDNNKLARVPSGLPDLKLLQVVYLHSNNITKVGVNDFCPMGFGVKRAYYNGISLFNNPVPYWEVQPATFRCVTDRLAIQFGNYKK
- collagen binding [5]: can bind to collagen in the gel contraction assays
